Results on one compound are retold here after patent publication US20260076948A1, “TREATMENT OF DIABETIC RETINOPATHY USING ENDOTHELIN RECEPTOR ANTAGONISTS” (Perfuse Therapeutics, Inc., priority 2019, published 2026).

Molecules are shown by their SMILES. “Also recorded” adds a separate entry of the source.

One data set concerns the target T1, ETA (Homo sapiens, UniProt P25101).
T1 sequence (P25101 21-427): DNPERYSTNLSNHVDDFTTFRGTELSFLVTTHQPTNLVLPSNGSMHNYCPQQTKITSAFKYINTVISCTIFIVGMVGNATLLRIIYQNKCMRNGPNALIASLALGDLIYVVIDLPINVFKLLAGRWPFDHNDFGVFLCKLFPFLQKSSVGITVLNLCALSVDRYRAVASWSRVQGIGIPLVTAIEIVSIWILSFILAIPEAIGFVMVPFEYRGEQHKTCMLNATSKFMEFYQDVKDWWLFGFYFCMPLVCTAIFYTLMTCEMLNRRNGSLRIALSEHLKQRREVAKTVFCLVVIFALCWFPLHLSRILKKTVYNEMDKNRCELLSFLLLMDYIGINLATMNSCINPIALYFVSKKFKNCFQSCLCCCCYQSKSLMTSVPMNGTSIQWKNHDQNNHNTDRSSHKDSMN
In words: Functional potency for ETA receptor. Type of data set: biochemical. An excerpt: (§1) In the above table, the physicochemical data, e.g., solubility, were obtained following standard protocols known in the field (see, e.g., Reis et al., Mini Rev Med Chem., 2010, 10(11):1071-6; Avdeef et al., Expert Opin Drug Metab Toxicol., 2005, 1(2):325-42; Bharate et al., Comb Chem High Throughput Screen., 2016, 19(6):461-9; and Jain et al., J Pharm Biomed Anal., 2013, 86:11-35.); and the biochemical data, i.e., potency for ETA/ETB, were obtained following the protocols known in the field (see, e.g., Kirkby et al., Br J Pharmacol., 2008, 153(6):1105-19; and Maguire et al., Br J Pharmacol., 2014, 171(24):5555-72.).

Data set [1] can be described thus: Solubility (pH 2, pH 7, ethyl acetate). Type of data set: physicochemical.
Description: as §1

A further data set in a line: Stability in solid state. Type of data set: physicochemical. The settings on record: 2 h@125° C.
Description: as §1

The next data set can be described thus: Permeability (PAMPA). Type of data set: in vitro ADME. The settings on record: PAMPA log Pe and PSA.
Description: as §1
In general terms: In PAMPA a lipid-coated filter parts donor from acceptor wells.

A further data set deals with ET-1 induced vasospasm. In words: Rabbit ET-1 induced vasospasm model, retinal blood flow (FA, OCT-A). Type of data set: in vivo, rabbit (Oryctolagus cuniculus). The procedure: Adult, male Dutch-belted rabbits were given a 20 μl intravitreal injection (IVT) of 0.5 μg of ET-1 followed by a 20 μl intravitreal injection of 10-100 μg Edonentan given 30 min after the ET-1 administration. IOP, optical coherence tomography-angiography (OCT-A), and fluorescein angiograms (FA) were performed at pre-specified time points (30, 45, 60, and 75 min) following ET-1 and Edonentan administration to assess retinal blood flow changes induced by ET-1+/−Edonentan. […] To evaluate the effect of retinal blood flow following intravitreally administered endothelin-1 (ET-1) followed by the antagonist Edonentan in the rabbit, rabbits (Oryctolagus cuniculus) were given a 20 μL intravitreal injection of ET-1 in the left eye followed by a 20 μL intravitreal injection of Edonentan at 2 (or 3) different doses (e.g. 0.1 μg, 0.5 μg, 2.5 μg). The pulse ox, tonometry, optical coherence tomography angiography (OCTA), fluorescein angiography (FA) and retinal leakage scoring were performed for evaluation.

In data set [2] the test system is oxygen-induced ischemic retinopathy (OIR). The experiment in a line: Mouse oxygen-induced ischemic retinopathy (OIR), retinal hypoxia area. Type of data set: in vivo. The settings on record: OIR mice, IVT single dose 1 μL of 2 μg/μL; 24, 48, 96 hours. The procedure: A relevant mice model was used to obtain the retinal hypoxia area in mice with oxygen-induced ischemic retinopathy (OIR) at different time points, as shown in FIG. 4. […] Briefly, at P17, mice with OIR (n=60) were given an injection of ET-1 antagonist (1 μL of 2 μg/μL Edonentan formulation, single dose) in one eye and PBS in the fellow eye. At 24, 48, and 96 hours after injection, mice (n=10 for each time point) were euthanized and the retinas were dissected and stained with GSA lectin and hypoxyprobe. The area of NV, area of retinal hypoxia, and the area of retinal nonperfusion were determined for each retina.

Data set [3] is described as follows: Pharmacokinetics after topical or oral administration in the rat. Type of data set: in vivo, Brown Norway rats. The procedure: After the administrations, the animals (N=2) were euthanized at different time points (e.g. 4 and 8 hours) and tissues were collected for analysis. List of tissues collected include plasma, retina/retinal pigment epithelium (RPE)/choroid, vitreous humor and aqueous humor.

Data set [4] is described as follows: Pharmacokinetics after topical administration in the rabbit. The class given is in vivo, Dutch-belted rabbits. The settings on record: single eye drop 100 μg, 10 minutes, 2 and 7 hours. The method, then: To determine the pharmacokinetic properties of Edonentan following topical administration in the rabbit, rabbits (Dutch-belted rabbits) received an eye drop in both eyes (100 μg of Edonentan, 35 μL dose volume/eye). After the administrations, the animals (N=2) were euthanized at different time points (e.g. 10 minutes (immediately after pot-dose), 2 and 7 hours) and tissues were collected for analysis. List of tissues collected include plasma, retina, vitreous humor and bulbar conjunctiva.

Data set [5] concerns laser-induced glaucoma model. In words: Laser-induced non-human primate glaucoma model, ONH blood flow by LSFG after IVT administration. The class given is in vivo, rhesus macaque, Macaca Mulatta. The method, then: Non-human primates (rhesus macaque, Macaca Mulatta) were obtained for this study. One eye of each animal underwent induction of elevation of intraocular pressure (IOP) by repeated laser photocoagulation of the trabecular meshwork. Imaging sessions were repeated to monitor the optic nerve head (ONH) and retinal structural changes. A study was performed to compare an experimental glaucoma eye and a contralateral healthy eye (control) of three non-human primates in global average mean blur rate (MBR) and MBR change from baseline over time as an index of ONH blood flow in a laser-induced glaucoma model. More specifically, a vehicle control, 0.02 mg/mL of Edonentan, 0.2 mg/mL of Edonentan, or 2.0 mg/mL of Edonentan was intravitreally administered ([…]) to a glaucomatous eye of each of three non-human primates (rhesus macaque, Macaca Mulatta). These graphs show the ONH blood flow in the three non-human primates after IVT administration of a vehicle alone (FIG. 7A, FIG. 7E, and FIG. 7I), 0.02 mg/mL of Edonentan (FIG. 7B, FIG. 7F, and FIG. 7J), 0.2 mg/mL of Edonentan (FIG. 7C, FIG. 7G, and FIG. 7K) or 2.0 mg/mL of Edonentan (FIG. 7D, FIG. 7H, and FIG. 7L). […] In one of the above three non-human primates, an LSFG scan was performed at various selected time points when Edonentan was administered at 2.0 mg/mL.

One may read the Solubility as how much of the substance goes into solution per volume. Low readings indicate little dissolved substance, high ones much dissolved substance. With `Cc1onc(NS(=O)(=O)c2ccccc2-c2ccc(-c3ncco3)cc2CN(C)C(=O)CC(C)(C)C)c1C` [Edonentan, N-[[2′-[[(4,5-dimethyl-3-isoxazolyl)amino]sulfonyl]-4-(2-oxazolyl)[1,1′-biphenyl]-2-yl]methyl]-N,3,3-trimethylbutanamide], the “Functional potency for ETA and ETB receptors, rating in words” value at ETA is on record as “High potency”. The “Specificity ETA versus ETB, rating in words” value on ETA (ETA vs ETB) is given as “High specificity”. The “Solubility in Ethyl Acetate, rating in words” value in data set [1] (ethyl acetate) is on record as “Good”. Also, the “Solubility at pH 2” value in data set [1] (pH 2) is given as below 1 μM. Besides, the “Solubility at pH 7, comparison in words” value in data set [1] (pH 7) is reported as “superior to that of A-182086”. Moreover, in the data set “Stability in solid state”, the “Stability in Solid State, in words” value is given as “Stable”. The “Permeability, rating in words” value in “Permeability (PAMPA)” was “Mid-High”. Besides, the “ET-1 induced vasospasm / vasoconstriction (fluorescein angiography)” value with ET-1 induced vasospasm (0.5 μg ET-1 IVT, then 10 μg Edonentan IVT 30 min later) is “reversed; also recorded: reversal”. For the same compound, the “Time to reversal of the ET-1 effect” value with ET-1 induced vasospasm (after ET-1, 10 μg Edonentan IVT (60 min after Edonentan)) is given as at most 90 min. Besides, the “Fluorescein dye velocity as an index of retinal blood flow” value with ET-1 induced vasospasm (healthy rabbits, 0.5 μg ET-1 and 10 μg antagonist IVT) is “improved to control levels”. In data set [2], the Retinal hypoxia area entry is given as “improvement of retinal hypoxia; also recorded: improved retinal hypoxia”. For the same compound, in data set [3] (eye drop 100 μg, 4 and 8 hours), the “Ocular exposure after topical administration (retina/RPE/choroid, aqueous humor, vitreous humor)” value was “detected; also recorded: permeate through cornea/sclera and achieve retina exposure”. Further, the “Detection in the aqueous humor after oral administration” value in [3] (oral, 17 mg/kg as printed) was “detectable”. The “Detection in the retina/RPE/choroid and vitreous humor after oral administration” value in [3] (oral, 1.7 and 17 mg/kg as printed) is “detectable”. In addition, the “Tissue exposure after topical administration (plasma, retina, vitreous humor, bulbar conjunctiva)” value in [4] is “detected in all tissues examined at all timepoints; also recorded: penetrate through ocular layers”. In addition, in data set [5] (IVT 0.02, 0.2 or 2.0 mg/mL Edonentan, glaucomatous eye, over 6 hours), the “ONH blood flow (global average MBR, LSFG), individual animals” value was “improvement of ONH blood flow in a dose-dependent manner”. Moreover, the “ONH blood flow, aggregate of three non-human primates” value in [5] (IVT 0.02, 0.2 or 2.0 mg/mL, experimental glaucoma eyes vs control eyes) is recorded as “does-related increase of ONH blood flow”.
